Measured values taken from ChEMBL document CHEMBL4627395, “Cytotoxic Heptaketides from the Endolichenic Fungus Ulospora bilgramii” (J Nat Prod, 2020).
pIC50: −log10 of the molar value. Activity calls are given as the source filed them. The calls are words filed in the database; no cut-off is given here.

Legend:
A549 [1] = experiment: Induction of cell cycle arrest in human A549 cells assessed as accumulation at G0/G1 phase at 1.25 uM incubated for 24 hrs by flow cytometry (reference value: 55.79%); assay type: functional
A549 [2] = experiment: Induction of apoptosis in human A549 cells assessed as late apoptotic cells at 5 uM after 24 hrs by Annexin-V-FITC/propidium iodide staining based flow cytometric method (reference value: 1.40%); assay type: functional
A549 [3] = experiment: Induction of apoptosis in human A549 cells assessed as early apoptotic cells at 1.25 uM after 24 hrs by Annexin-V-FITC/propidium iodide staining based flow cytometric method (reference value: 0.56%); assay type: functional
A549 [4] = experiment: Induction of cell cycle arrest in human A549 cells assessed as accumulation at G2/M phase at 5 uM incubated for 24 hrs by flow cytometry (reference value: 10.38%); assay type: functional
A549 [5] = experiment: Induction of apoptosis in human A549 cells assessed as early apoptotic cells at 2.5 uM after 24 hrs by Annexin-V-FITC/propidium iodide staining based flow cytometric method (reference value: 0.56%); assay type: functional
A549 [6] = experiment: Induction of cell cycle arrest in human A549 cells assessed as accumulation at G0/G1 phase at 5 uM incubated for 24 hrs by flow cytometry (reference value: 55.79%); assay type: functional
MCF7 = experiment: Cytotoxicity against human MCF7 cells incubated for 48 hrs by MTT assay; assay type: functional, cell-based; details: MCF7, 48 h
A549 [7] = experiment: Induction of cell cycle arrest in human A549 cells assessed as accumulation at G2/M phase at 2.5 uM incubated for 24 hrs by flow cytometry (reference value: 10.38%); assay type: functional
A549 [8] = experiment: Induction of apoptosis in human A549 cells assessed as necrotic cells at 1.25 uM after 24 hrs by Annexin-V-FITC/propidium iodide staining based flow cytometric method (reference value: 1.12%); assay type: functional
A549 [9] = experiment: Induction of cell cycle arrest in human A549 cells assessed as accumulation at G2/M phase at 1.25 uM incubated for 24 hrs by flow cytometry (reference value: 10.38%); assay type: functional
A549 [10] = experiment: Induction of DNA damage in human A549 cells assessed as gammaH2AX accumulation incubated for 24 hrs by DAPI staining based Immunofluorescence method; assay type: functional, cell-based
A549 [11] = experiment: Induction of cell cycle arrest in human A549 cells assessed as accumulation at S phase at 2.5 uM incubated for 24 hrs by flow cytometry (reference value: 33.65%); assay type: functional
A549 [12] = experiment: Induction of cell cycle arrest in human A549 cells assessed as accumulation at S phase at 5 uM incubated for 24 hrs by flow cytometry (reference value: 33.65%); assay type: functional
A549 [13] = experiment: Induction of apoptosis in human A549 cells assessed as late apoptotic cells at 1.25 uM after 24 hrs by Annexin-V-FITC/propidium iodide staining based flow cytometric method (reference value: 1.40%); assay type: functional
A549 [14] = experiment: Induction of cell cycle arrest in human A549 cells assessed as accumulation at S phase at 13.6 uM incubated for 24 hrs by flow cytometry (reference value: 33.65%); assay type: functional
A549 [15] = experiment: Induction of cell cycle arrest in human A549 cells assessed as accumulation at G0/G1 phase at 2.5 uM incubated for 24 hrs by flow cytometry (reference value: 55.79%); assay type: functional
A549 [16] = experiment: Induction of cell cycle arrest in human A549 cells assessed as accumulation at G0/G1 phase at 13.6 uM incubated for 24 hrs by flow cytometry (reference value: 55.79%); assay type: functional
A549 [17] = experiment: Induction of cell cycle arrest in human A549 cells assessed as accumulation at S phase at 1.25 uM incubated for 24 hrs by flow cytometry (reference value: 33.65%); assay type: functional
A549 [18] = experiment: Induction of apoptosis in human A549 cells assessed as necrotic cells at 5 uM after 24 hrs by Annexin-V-FITC/propidium iodide staining based flow cytometric method (reference value: 1.12%); assay type: functional
A549 [19] = experiment: Induction of apoptosis in human A549 cells assessed as necrotic cells at 2.5 uM after 24 hrs by Annexin-V-FITC/propidium iodide staining based flow cytometric method (reference value: 1.12%); assay type: functional
A549 [20] = experiment: Induction of cell cycle arrest in human A549 cells assessed as accumulation at G2/M phase at 13.6 uM incubated for 24 hrs by flow cytometry (reference value: 10.38%); assay type: functional
A549 [21] = experiment: Induction of apoptosis in human A549 cells after 24 hrs by Annexin-V-FITC/propidium iodide staining based flow cytometric method; assay type: functional, cell-based
A549 [22] = experiment: Cytotoxicity against human A549 cells incubated for 48 hrs by MTT assay; assay type: functional, cell-based; details: A549, 48 h
A549 [23] = experiment: Induction of ROS generation in human A549 cells assessed as increase in fluorescence intensity at 5 uM incubated for 24 hrs by DCFH-DA staining-based flow cytometric analysis relative to control; assay type: functional
A549 [24] = experiment: induction of morphological changes in human A549 cells assessed as appearance of apoptotic bodies at 1.25 to 5 uM incubated for 24 hrs by DAPI-staining based microscopic method; assay type: functional, cell-based
[25] = biological target: DNA topoisomerase 2-alpha (Homo sapiens) (UniProt P11388); experiment: Inhibition of human topoisomerase-2alpha expressed in baculovirus infected insect cells assessed as reduction in pBR322 DNA relaxation measured after 30 mins by ethidium bromide staining based agarose gel electrophoresis method relative to control
DNA topoisomerase 2-alpha (Homo sapiens), sequence (P11388 whole entry): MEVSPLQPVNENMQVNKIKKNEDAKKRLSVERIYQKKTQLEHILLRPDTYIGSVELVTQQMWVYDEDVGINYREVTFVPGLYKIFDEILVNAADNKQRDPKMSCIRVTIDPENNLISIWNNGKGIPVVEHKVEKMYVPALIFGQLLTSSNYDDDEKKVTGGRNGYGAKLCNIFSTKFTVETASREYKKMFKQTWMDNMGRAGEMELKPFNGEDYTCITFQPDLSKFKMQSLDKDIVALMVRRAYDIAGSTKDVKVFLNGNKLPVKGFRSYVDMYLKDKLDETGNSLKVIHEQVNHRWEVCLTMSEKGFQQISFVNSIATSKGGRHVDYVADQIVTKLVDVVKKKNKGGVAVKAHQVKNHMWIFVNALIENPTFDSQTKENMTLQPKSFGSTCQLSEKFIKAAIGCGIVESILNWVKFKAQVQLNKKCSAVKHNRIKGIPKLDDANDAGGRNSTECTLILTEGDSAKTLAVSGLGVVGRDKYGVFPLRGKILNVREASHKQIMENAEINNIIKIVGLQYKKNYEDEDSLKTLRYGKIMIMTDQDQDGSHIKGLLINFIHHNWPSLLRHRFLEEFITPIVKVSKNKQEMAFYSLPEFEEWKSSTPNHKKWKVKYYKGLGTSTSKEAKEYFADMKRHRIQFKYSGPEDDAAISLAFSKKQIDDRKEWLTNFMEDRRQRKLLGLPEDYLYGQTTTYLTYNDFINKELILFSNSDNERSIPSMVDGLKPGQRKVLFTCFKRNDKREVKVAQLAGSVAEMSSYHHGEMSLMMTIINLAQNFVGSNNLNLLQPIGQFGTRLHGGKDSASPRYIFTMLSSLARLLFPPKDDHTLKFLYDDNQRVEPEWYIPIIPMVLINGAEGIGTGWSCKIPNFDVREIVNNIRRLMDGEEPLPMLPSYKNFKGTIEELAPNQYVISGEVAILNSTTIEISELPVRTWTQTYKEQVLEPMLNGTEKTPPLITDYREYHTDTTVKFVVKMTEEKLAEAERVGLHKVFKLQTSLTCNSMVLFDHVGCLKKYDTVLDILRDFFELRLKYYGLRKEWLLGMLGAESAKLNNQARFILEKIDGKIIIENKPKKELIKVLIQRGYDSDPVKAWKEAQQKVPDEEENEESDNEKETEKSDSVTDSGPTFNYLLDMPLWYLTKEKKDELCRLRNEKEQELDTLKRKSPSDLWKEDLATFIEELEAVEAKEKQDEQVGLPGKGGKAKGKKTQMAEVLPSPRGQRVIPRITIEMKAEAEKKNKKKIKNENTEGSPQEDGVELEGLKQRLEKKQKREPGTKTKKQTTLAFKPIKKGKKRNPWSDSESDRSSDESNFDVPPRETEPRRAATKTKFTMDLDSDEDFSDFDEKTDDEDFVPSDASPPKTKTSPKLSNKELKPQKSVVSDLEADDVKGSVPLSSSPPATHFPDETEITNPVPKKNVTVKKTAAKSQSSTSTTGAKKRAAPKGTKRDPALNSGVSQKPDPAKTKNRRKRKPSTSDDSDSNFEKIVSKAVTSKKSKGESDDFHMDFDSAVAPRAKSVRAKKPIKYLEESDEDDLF

KB = experiment: Cytotoxicity against human KB cells incubated for 48 hrs by MTT assay; assay type: functional, cell-based
A549 [26] = experiment: Induction of apoptosis in human A549 cells assessed as necrotic cells at 13.6 uM after 24 hrs by Annexin-V-FITC/propidium iodide staining based flow cytometric method (reference value: 1.12%); assay type: functional
A549 [27] = experiment: Induction of ROS generation in human A549 cells incubated for 24 hrs by DCFH-DA staining-based flow cytometric analysis relative to control; assay type: functional, cell-based
A549 [28] = experiment: Induction of apoptosis in human A549 cells assessed as late apoptotic cells at 2.5 uM after 24 hrs by Annexin-V-FITC/propidium iodide staining based flow cytometric method (reference value: 1.40%); assay type: functional
A549 [29] = experiment: Induction of cell cycle arrest in human A549 cells assessed as accumulation at G0/G1 phase incubated for 24 hrs by flow cytometry; assay type: functional, cell-based
A549 [30] = experiment: induction of morphological changes in human A549 cells assessed as cell shrinkage at 1.25 to 5 uM incubated for 24 hrs by DAPI-staining based microscopic method; assay type: functional
A549 [31] = experiment: Induction of apoptosis in human A549 cells assessed as late apoptotic cells at 13.6 uM after 24 hrs by Annexin-V-FITC/propidium iodide staining based flow cytometric method (reference value: 1.40%); assay type: functional
A549 [32] = experiment: Induction of apoptosis in human A549 cells assessed as early apoptotic cells at 5 uM after 24 hrs by Annexin-V-FITC/propidium iodide staining based flow cytometric method (reference value: 0.56%); assay type: functional
A549 [33] = experiment: Induction of apoptosis in human A549 cells assessed as early apoptotic cells at 13.6 uM after 24 hrs by Annexin-V-FITC/propidium iodide staining based flow cytometric method (reference value: 0.56%); assay type: functional

COc1cc(O)c2c(c1)C(=O)C1=C(C2=O)[C@H](OC[C@@H]2C(=O)CC[C@@H]2C)OC(C)=C1
Activity (A549 [1]): 59.51% | Activity (A549 [2]): 10.75% | Activity (A549 [3]): 0.98% | Activity (A549 [4]): 1.11% | Activity (A549 [5]): 0.87% | Activity (A549 [6]): 69.15% | pIC50 (MCF7): 5.89 | Activity (A549 [7]): 3.56% | Activity (A549 [8]): 0.73% | Activity (A549 [9]): 7.18% | Activity (A549 [10]): Dose-dependent effect | Activity (A549 [11]): 30.07% | Activity (A549 [12]): 29.74% | Activity (A549 [13]): 1.14% | Activity (A549 [14]): 24.26% | Activity (A549 [15]): 66.37% | Activity (A549 [16]): 30.93% | Activity (A549 [17]): 33.31% | Activity (A549 [18]): 7.75% | Activity (A549 [19]): 1.3% | Activity (A549 [20]): 44.81% | Activity (A549 [21]): Dose-dependent effect | pIC50 (A549 [22]): 5.89 | fold change (FC) (A549 [23]): 5 | Activity (A549 [24]): Active | inhibition [25]: Active | pIC50 (KB): 5.52 | Activity (A549 [26]): 2.15% | Activity (A549 [27]): Dose-dependent effect | Activity (A549 [28]): 2.69% | Activity (A549 [29]): Dose-dependent effect | Activity (A549 [30]): Active | Activity (A549 [31]): 5.02% | Activity (A549 [32]): 1.8% | Activity (A549 [33]): 6.79%
